Laboratory results from patent US6235789A, “Benzocycloalkene compounds, their production and use” (Takeda Chemical Industries, Ltd., priority 1994, dated 2001).

Biological target: melatonin receptor
Assay: Inhibition of 2-[^125 I]iodomelatonin binding in forebrain homogenate of 7-day-old chicken
Parameters: species or system chicken (white leghorn)
Conditions: 80 pM 2-[^125 I]iodomelatonin, 90 minutes at 25° C., 7-day-old chicken forebrain homogenate, log-probit analysis; read-out: IC50, action of inhibiting 2-[^125 I]iodomelatonin binding
Experimental: The farebrains of 7-day-old chicken (white leghorn) were homogenized with ice-cold assay buffer (50 mM Tris-HCl, pH 7.7 at 25° C.) and centrifuged at 44,000×g for 10 minutes at 4° C. The pellet was washed once with the same buffer and stored at -30° C. until use. For the assay, the frozen tissue pellet was thawed and homogenized with the assay buffer to make a protein concentration of 0.3-0.4 mg/ml. […] The reaction was terminated by adding 3 ml of ice-cold assay buffer immediately followed by vacuum filtration on Whatman GF/B which was further washed twice with 3 ml of ice-cold assay buffer. The radioactivity on the filter was determined by means of γ-counter.

CC(=O)NCCC1CCCc2ccc(O)cc21 (stereo not drawn) [compound 35] and COc1ccc2c(c1)[C@H](CCNC(C)=O)CC2 [compound 66] are within 1.5-fold of each other in IC50: 0.95 nM for the first, 0.7 nM for the second.

With COc1ccc2c(c1)/C(=C/CNC(=O)C(F)(F)F)CCC2 [compound 33] the IC50 was 0.72 nM.
